Consider 3 molecules from patent US10550144B2, “6-aryl-9-glycosylpurines and use thereof” (UNIVERZITA PALACKEHO V OLOMOUCI, priority 2014, dated 2020).

Data set [1] has as its system skin fibroblasts BJ and keratinocytes HaCaT. Nature of the data set: MTT in vitro cytotoxicity test on skin cells. The data set is classed as cell-based, human. The procedure:
MTT assay is a standard test of toxicity based on photometric measurement of the ability of metabolically active cells to reduce MTT (3-(4,5-dimethylthiazol-2-yl)-2,5-diphenyltetrazolium bromide). Using the assay, the effects of 72 hour treatments with several concentrations of the compounds (sixfold dilution, maximal concentration=50 microM) on viability of skin fibroblasts BJ and keratinocytes HaCaT were evaluated. About 5,000 cells were seeded per well of a 96-well plate 24 hours before the treatment. DMSO vehiculum was used as a negative control. After 72 hour treatment, new medium with MTT (Sigma, M2128) was added to a final concentration of 0.5 mg/ml. After 3 hours, medium was removed and resulting formazan in the cells was dissolved in DMSO. The absorbance was measured at 570 nm (640 nm reference wavelength). The IC50 values were calculated from the dose-response curves. 6-Benzylaminopurine riboside and 6-furfurylaminopurine riboside were used as positive controls they were toxic in the MTT test.

The test system of data set [2] is Dais cotinifolia shoot-tip explants. In words: Shoot multiplication and shoot-tip necrosis in shoot cultures of Dais cotinifolia. The data set is classed as in vivo. The conditions noted are these: after 8 weeks of culture. The protocol:
Explants were washed thoroughly with 0.1% (v/v) of Tween® 20 for 2 min, and decontaminated with 70% ethanol for 15 sec followed by 0.2% aqueous HgCl2 for 10 min. The explants were rinsed five times with sterile distilled water. […] Each value was presented as the mean±standard error, with three replicates; each replicate consisting of 15 explants per treatment.

The subject of data set [3] is Vaccinia virus. The conditions noted are these: Masakatsu et al. 1977; cited from earlier work.
The test system of data set [4] is Herpes simplex virus. The conditions noted are these: Masakatsu et al. 1977; cited from earlier work.
Data set [5] has as its system Amelanchier alnifolia nodal explants. In words: Micropropagation growth response with BAP, Amelanchier alnifolia. Conditions: after 35 days in vitro, N = 9.
Data set [6] deals with Gymnosporia buxifolia shoot-tip explants. Nature of the data set: Shoot-tip necrosis in in vitro cultures of Gymnosporia buxifolia. Conditions: after 4 weeks of culture.
In data set [7] the test system is Harpagophytum procumbens nodal explants. In words: Micropropagation growth response with BAP, Harpagophytum procumbens. Conditions: after 35 days in vitro, N = 12.

Where two headings read alike, the source gives them in different places. A value given as a limit tells only on which side of the number the result lay.

For the molecule `OC[C@H]1OC(n2cnc3c(NCc4ccccc4)ncnc32)[C@H](O)[C@@H]1O` (stereo partly drawn) [6-benzylaminopurin9-ribosylpurine], the “toxicity in the MTT test” value in data set [1] is “toxic”. For the same molecule, the IC50 in data set [1] (MTT, 72 hour treatment, maximal concentration 50 microM, BJ and HaCaT, table does not separate the cell lines) was ≤ 3000 nM.

Turning to `OC[C@H]1OC(n2cnc3c(NCc4ccco4)ncnc32)[C@H](O)[C@@H]1O` (stereo partly drawn) [6-furfurylamino-9-ribosylpurine], in data set [1] (72 hour treatment), the “toxicity in the MTT test” value was “toxic”.

Regarding `Cc1cccc(CNc2ncnc3c2ncn3[C@@H]2O[C@H](CO)[C@@H](O)[C@@H]2O)c1` [Example 3CH3BAPA, 6-(3-methylbenzylamino)-9-β-D-arabinofuranosylpurine], the Morphogenesis in vitro entry in data set [2] (5 μM in MS medium) was “Green shoots”; in data set [2] (10 μM in MS medium), “Green shoots”; in data set [2] (20 μM in MS medium), “Pale green shoots”; in data set [2] (30 μM in MS medium), “Pale green shoots”. For the same molecule, the “STN [%] (shoot-tip necrosis)” value in data set [2] (5 μM in MS medium) came to 52.2 ± 0.89b %; in data set [2] (10 μM in MS medium) it was 50.0 ± 0.75bc %; in data set [2] (20 μM in MS medium), 45.5 ± 0.95d %; in data set [2] (30 μM in MS medium), 31.3 ± 1.12ef %; in data set [6] (5 μM in MS medium), 53.3 ± 0.24d %; in data set [6] (10 μM in MS medium), 40.0 ± 0.20fg %. In addition, the “STN [%] (shoot-tip necrosis)” value in data set [6] (20 μM in MS medium) is listed as 22.6 ± 0.28hi %; in data set [6] (30 μM in MS medium) it was 13.3 ± 0.24j %. The “Shoot length [cm]” value was determined as 1.42 ± 0.21bc cm in data set [2] (5 μM in MS medium); 1.86 ± 0.14ab cm in data set [2] (10 μM in MS medium); 1.94 ± 0.09ab cm in data set [2] (20 μM in MS medium); 2.26 ± 0.22a cm in data set [2] (30 μM in MS medium); 1.36 ± 0.27bc cm in data set [6] (5 μM in MS medium); 1.82 ± 0.17b cm in data set [6] (10 μM in MS medium). In addition, the “Shoot length [cm]” value in data set [6] (20 μM in MS medium) is 3.30 ± 0.14a cm; in data set [6] (30 μM in MS medium) it was 3.00 ± 0.11a cm. Also, the “Shoots [explant^−1] […]” value was 1.0 ± 0.00c explant^−1 in data set [2] (5 μM in MS medium); 1.0 ± 0.00c explant^−1 in data set [2] (10 μM in MS medium); 1.8 ± 0.48bc explant^−1 in data set [2] (20 μM in MS medium); 2.2 ± 0.32b explant^−1 in data set [2] (30 μM in MS medium); 1.0 ± 0.0a explant^−1 in data set [6] (5 μM in MS medium); 1.0 ± 0.0a explant^−1 in data set [6] (10 μM in MS medium). The “Shoots [explant^−1] […]” value in data set [6] (20 μM in MS medium) and in data set [6] (30 μM in MS medium) was 1.0 ± 0.0a explant^−1 throughout. In data set [3], the “activity in killing Vaccinia virus” value is reported as “No effect”. Besides, the “activity in killing Herpes simplex virus” value in data set [4] is given as “No effect”. Besides, the “Fresh weight (g) mean SE” value in data set [5] (5 μM compound with 10 μM BAP) was 0.249 ± 0.0594 g; in data set [5] (10 μM compound with 10 μM BAP), 0.349 ± 0.1025 g; in data set [5] (20 μM compound with 10 μM BAP) it was 0.563 ± 0.0729 g; in data set [5] (30 μM compound with 10 μM BAP) it was 0.335 ± 0.0877 g; in data set [7] (5 μM compound with 10 μM BAP), 0.8607 ± 0.1884 g; in data set [7] (10 μM compound with 10 μM BAP), 1.0523 ± 0.2439 g. In addition, the “Fresh weight (g) mean SE” value was 0.8456 ± 0.1339 g in data set [7] (20 μM compound with 10 μM BAP) and 1.1419 ± 0.213 g in data set [7] (30 μM compound with 10 μM BAP). In addition, the “Shoot length (mm) mean SE” value in data set [5] (5 μM compound with 10 μM BAP) is given as 14.11 ± 1.670 mm; in data set [5] (10 μM compound with 10 μM BAP), 18.89 ± 2.288 mm; in data set [5] (20 μM compound with 10 μM BAP), 16.22 ± 1.730 mm; in data set [5] (30 μM compound with 10 μM BAP), 18.33 ± 3.122 mm; in data set [7] (5 μM compound with 10 μM BAP) it was 28.6 ± 4.397 mm; in data set [7] (10 μM compound with 10 μM BAP) it was 45.8 ± 7.094 mm. The “Shoot length (mm) mean SE” value in data set [7] (20 μM compound with 10 μM BAP) stood at 27 ± 3.531 mm; in data set [7] (30 μM compound with 10 μM BAP), 40.6 ± 4.831 mm. The “Shoot no. mean SE” value in data set [5] (5 μM compound with 10 μM BAP) was found to be 7.6 ± 2.10; in data set [5] (10 μM compound with 10 μM BAP), 10.6 ± 2.75; in data set [5] (20 μM compound with 10 μM BAP), 13.7 ± 2.06; in data set [5] (30 μM compound with 10 μM BAP), 11.6 ± 2.99; in data set [7] (5 μM compound with 10 μM BAP), 2.8 ± 0.573; in data set [7] (10 μM compound with 10 μM BAP) it was 2.6 ± 0.340. Besides, the “Shoot no. mean SE” value was 2.3 ± 0.423 in data set [7] (20 μM compound with 10 μM BAP) and 3.8 ± 0.593 in data set [7] (30 μM compound with 10 μM BAP).

The term IC50 denotes the concentration that gives 50% inhibition. Higher therefore signals a need for much substance.
